Columns and labels:
[1] = target: T1, Gastrin/cholecystokinin type B receptor (Mus musculus, UniProt P56481); assay: Inhibitory activity against Cholecystokinin type B receptor
T1 sequence (P56481 whole entry): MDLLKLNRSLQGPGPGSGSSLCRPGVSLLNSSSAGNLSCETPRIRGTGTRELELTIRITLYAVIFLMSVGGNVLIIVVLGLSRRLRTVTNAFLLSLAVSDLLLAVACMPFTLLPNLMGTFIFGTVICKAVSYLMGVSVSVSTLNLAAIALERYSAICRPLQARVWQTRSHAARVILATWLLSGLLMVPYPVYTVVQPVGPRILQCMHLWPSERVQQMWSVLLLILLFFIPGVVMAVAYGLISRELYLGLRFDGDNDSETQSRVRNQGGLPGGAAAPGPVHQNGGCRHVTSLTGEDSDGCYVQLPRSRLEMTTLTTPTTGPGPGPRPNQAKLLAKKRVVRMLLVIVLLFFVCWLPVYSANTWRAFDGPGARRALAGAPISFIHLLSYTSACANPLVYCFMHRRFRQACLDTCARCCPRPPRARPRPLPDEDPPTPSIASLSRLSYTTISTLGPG

[2] = target: T2, Cholecystokinin receptor type A (Mus musculus, UniProt O08786); assay: Inhibitory activity against Cholecystokinin type A receptor
T2 sequence (O08786 whole entry): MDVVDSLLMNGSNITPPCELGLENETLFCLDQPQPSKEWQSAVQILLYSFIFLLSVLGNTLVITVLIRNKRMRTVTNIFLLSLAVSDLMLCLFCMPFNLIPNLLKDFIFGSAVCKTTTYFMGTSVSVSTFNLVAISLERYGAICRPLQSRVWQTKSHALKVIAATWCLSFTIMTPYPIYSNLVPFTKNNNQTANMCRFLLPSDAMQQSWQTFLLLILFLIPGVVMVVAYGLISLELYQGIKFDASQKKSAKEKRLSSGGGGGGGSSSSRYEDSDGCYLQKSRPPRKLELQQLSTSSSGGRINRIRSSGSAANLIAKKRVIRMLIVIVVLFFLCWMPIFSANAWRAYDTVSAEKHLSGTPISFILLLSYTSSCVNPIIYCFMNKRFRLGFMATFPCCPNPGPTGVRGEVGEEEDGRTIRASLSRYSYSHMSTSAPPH

[3] = target: Cholecystokinin receptor (Mus musculus) (UniProt O08786+P56481); assay: Ratio of IC50(gastrin) to IC50(CCK-A); assay type: protein assay
Histamine H2 receptor = Histamine H2 receptor (Rattus norvegicus, UniProt P25102); assay: Antagonistic activity for inhibition of histamine H2 receptor from anesthetized rats; assay type: functional; conditions: read-out: pA2 (converted)
Chain of Histamine H2 receptor (P25102 whole entry): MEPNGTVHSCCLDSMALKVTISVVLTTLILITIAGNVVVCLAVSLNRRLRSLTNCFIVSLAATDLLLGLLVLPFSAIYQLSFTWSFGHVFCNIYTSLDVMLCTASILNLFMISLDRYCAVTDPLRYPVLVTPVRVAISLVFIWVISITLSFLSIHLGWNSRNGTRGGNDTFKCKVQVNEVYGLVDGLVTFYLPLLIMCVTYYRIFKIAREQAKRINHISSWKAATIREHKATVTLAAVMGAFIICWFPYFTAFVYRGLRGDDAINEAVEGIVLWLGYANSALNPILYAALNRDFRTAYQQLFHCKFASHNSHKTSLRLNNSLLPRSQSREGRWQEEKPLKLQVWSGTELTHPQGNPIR

Row | Structure (SMILES) | IC50 [1] | IC50 [2] | Ratio [3] | Kb (Histamine H2 receptor)
1 | Cc1cccc(NC(=O)NC2N=C(c3cccc(OCC(=O)NCCSCc4csc(N=C(N)N)n4)c3)c3ccccc3N(C)C2=O)c1 (centres undefined) | 0.35 µM | 5.4 µM | 40 | 5.01 µM
2 | CN1C(=O)[C@H](NC(=O)Nc2cccc(C(=O)NCCCOc3cccc(CN4CCCCC4)c3)c2)N=C(c2ccccc2)c2ccccc21 | 0.6 µM | 2.5 µM | 4.5 | > 10 µM
3 | CN1C(=O)[C@H](NC(=O)Nc2cccc(C(=O)NCCSCc3csc(N=C(N)N)n3)c2)N=C(c2ccccc2)c2ccccc21 | 0.44 µM | 0.38 µM | 1 | > 10 µM
4 | Cc1cccc(NC(=O)NC2N=C(c3ccccc3)c3ccccc3N(CC(=O)NCCC(=O)NCCCOc3cccc(CN4CCCCC4)c3)C2=O)c1 (centres undefined) | 2.15 µM | 1.3 µM | 7 | 0.794 µM
5 | CN1C(=O)[C@H](NC(=O)Nc2cccc(CC(=O)NCCCC(=O)NCCSCc3csc(N=C(N)N)n3)c2)N=C(c2ccccc2)c2ccccc21 | 0.33 µM | 0.33 µM | 1.4 | 0.501 µM
6 | Cc1cccc(NC(=O)NC2N=C(c3ccccc3)c3ccccc3N(CC(=O)NCC(=O)NCCSCc3csc(N=C(N)N)n3)C2=O)c1 (centres undefined) | 6.8 µM | 0.76 µM | 2.1 | 3.98 µM
7 | Cc1cccc(NC(=O)NC2N=C(c3cccc(OCC(=O)NCCC(=O)NCCCOc4cccc(CN5CCCCC5)c4)c3)c3ccccc3N(C)C2=O)c1 (centres undefined) | 0.76 µM | 15 µM | 75 | 0.501 µM
8 | Cc1cccc(NC(=O)NC2N=C(c3ccccc3)c3ccccc3N(CC(=O)NCCCOc3cccc(CN4CCCCC4)c3)C2=O)c1 (centres undefined) | 0.54 µM | 5.7 µM | 36.8 | > 10 µM
9 | Cc1cccc(NC(=O)N[C@@H]2N=C(c3ccccc3)c3ccccc3N(C)C2=O)c1 [L-365260] |  | 11.1 µM |  | 
10 | Cc1cccc(NC(=O)NC2N=C(c3cccc(OCC(=O)NCCCOc4cccc(CN5CCCCC5)c4)c3)c3ccccc3N(C)C2=O)c1 (centres undefined) | 1.7 µM | 9.2 µM | 16.1 | 5.01 µM
11 | CN1C(=O)[C@H](NC(=O)Nc2cccc(CC(=O)NCCSCc3csc(N=C(N)N)n3)c2)N=C(c2ccccc2)c2ccccc21 | 0.48 µM | 0.56 µM | 3.4 | > 10 µM
12 | CN1C(=O)[C@H](NC(=O)Nc2cccc(CC(=O)NCCC(=O)NCCCOc3cccc(CN4CCCCC4)c3)c2)N=C(c2ccccc2)c2ccccc21 | 0.29 µM | 0.19 µM | 1.4 | 0.251 µM
13 | CN1C(=O)[C@H](NC(=O)Nc2cccc(CC(=O)NCCCOc3cccc(CN4CCCCC4)c3)c2)N=C(c2ccccc2)c2ccccc21 | 0.16 µM | 4.1 µM | 17.8 | > 10 µM
14 | Cc1cccc(NC(=O)NC2N=C(c3cccc(OCC(=O)NCCCC(=O)NCCCOc4cccc(CN5CCCCC5)c4)c3)c3ccccc3N(C)C2=O)c1 (centres undefined) | 0.29 µM | 9.4 µM | 157 | 0.316 µM
15 | Cc1cccc(NC(=O)NC2N=C(c3ccccc3)c3ccccc3N(CC(=O)NCCSCc3csc(N=C(N)N)n3)C2=O)c1 (centres undefined) | 0.035 µM | 4.8 µM | 1600 | > 10 µM
16 | CN1C(=O)[C@H](NC(=O)Nc2cccc(CC(=O)NCCCCCC(=O)NCCSCc3csc(N=C(N)N)n3)c2)N=C(c2ccccc2)c2ccccc21 | 0.255 µM | 0.19 µM | 4.2 | 1 µM
17 | Cc1cccc(NC(=O)NC2N=C(c3cccc(OCC(=O)NCC(=O)NCCCOc4cccc(CN5CCCCC5)c4)c3)c3ccccc3N(C)C2=O)c1 (centres undefined) | 0.55 µM | 5.2 µM | 82.5 | 0.501 µM
18 | CN/C(=N/CCSCc1nc[nH]c1C)NC#N [CIMETIDINE] |  |  |  | 0.251 µM
19 | Cc1cccc(NC(=O)NC2N=C(c3cccc(OCC(=O)NCCCC(=O)NCCSCc4csc(N=C(N)N)n4)c3)c3ccccc3N(C)C2=O)c1 (centres undefined) | 0.215 µM | 2.1 µM | 150 | 0.631 µM

Results, then the compound that gave them:

Row | IC50 [1] | IC50 [2] | Ratio [3] | Kb (Histamine H2 receptor) | Structure (SMILES)
20 | 6.6 µM | 0.72 µM | 3.8 | 3.16 µM | Cc1cccc(NC(=O)NC2N=C(c3ccccc3)c3ccccc3N(CC(=O)NCCCC(=O)NCCSCc3csc(N=C(N)N)n3)C2=O)c1 (centres undefined)
21 | 0.4 µM | 2 µM | 80 | 0.794 µM | Cc1cccc(NC(=O)NC2N=C(c3cccc(OCC(=O)NCCC(=O)NCCSCc4csc(N=C(N)N)n4)c3)c3ccccc3N(C)C2=O)c1 (centres undefined)
22 | 0.2 µM | 0.12 µM | 1.5 | 0.398 µM | CN1C(=O)[C@H](NC(=O)Nc2cccc(CC(=O)NCCC(=O)NCCSCc3csc(N=C(N)N)n3)c2)N=C(c2ccccc2)c2ccccc21
23 | 5 µM | 0.9 µM | 4.3 | 0.794 µM | Cc1cccc(NC(=O)NC2N=C(c3ccccc3)c3ccccc3N(CC(=O)NCCCC(=O)NCCCOc3cccc(CN4CCCCC4)c3)C2=O)c1 (centres undefined)
24 | 0.205 µM | 0.33 µM | 2.9 | 0.398 µM | CN1C(=O)[C@H](NC(=O)Nc2cccc(CC(=O)NCCCC(=O)NCCCOc3cccc(CN4CCCCC4)c3)c2)N=C(c2ccccc2)c2ccccc21
25 | 0.43 µM | 0.39 µM | 5.2 | 1.26 µM | Cc1cccc(NC(=O)NC2N=C(c3ccccc3)c3ccccc3N(CC(=O)NCCC(=O)NCCSCc3csc(N=C(N)N)n3)C2=O)c1 (centres undefined)
26 | 0.8 µM | 0.65 µM | 40.6 | 0.398 µM | Cc1cccc(NC(=O)NC2N=C(c3ccccc3)c3ccccc3N(CC(=O)NCCCCCC(=O)NCCCOc3cccc(CN4CCCCC4)c3)C2=O)c1 (centres undefined)
27 | 3.6 µM | 0.43 µM | 0.5 | 6.31 µM | Cc1cccc(NC(=O)NC2N=C(c3ccccc3)c3ccccc3N(CC(=O)NCC(=O)NCCCOc3cccc(CN4CCCCC4)c3)C2=O)c1 (centres undefined)
28 | 0.092 µM | 0.34 µM | 3.1 | 0.631 µM | CN1C(=O)[C@H](NC(=O)Nc2cccc(CC(=O)NCCCCCC(=O)NCCCOc3cccc(CN4CCCCC4)c3)c2)N=C(c2ccccc2)c2ccccc21
29 | 0.31 µM | 1.09 µM | 90.8 | 1 µM | Cc1cccc(NC(=O)NC2N=C(c3cccc(OCC(=O)NCC(=O)NCCSCc4csc(N=C(N)N)n4)c3)c3ccccc3N(C)C2=O)c1 (centres undefined)
30 | 0.32 µM | 3.6 µM | 112 | 0.631 µM | Cc1cccc(NC(=O)NC2N=C(c3cccc(OCC(=O)NCCCCCC(=O)NCCCOc4cccc(CN5CCCCC5)c4)c3)c3ccccc3N(C)C2=O)c1 (centres undefined)
